# Reference: article PMC4585333, “Novel Regulator of Acylated Ghrelin, CF801, Reduces Weight Gain, Rebound Feeding after a Fast, and Adiposity in Mice” (Frontiers in Endocrinology, 2015)
# “Also recorded” adds a separate entry of the source.
# Key:
# human GOAT (hGOAT) = molecular target: T1, human GOAT (hGOAT) (Homo sapiens, UniProt Q96T53); test: Fluorescence-based GOAT activity assay, human GOAT; assay type: biochemical; details: concentrations up to 10 μM; Sf9 membranes, 1.5 μM GSSFLCAcDan, 500 μM octanoyl-CoA, 30 min pre-incubation, 1 h room temperature, pH 7.0, HPLC fluorescence, triplicate; F(3,8) = 1.251, p > 0.05
# T1 construct: made in house; host or cells: Sf9 insect cells (membrane fraction)
# T1 sequence (Q96T53 1-435): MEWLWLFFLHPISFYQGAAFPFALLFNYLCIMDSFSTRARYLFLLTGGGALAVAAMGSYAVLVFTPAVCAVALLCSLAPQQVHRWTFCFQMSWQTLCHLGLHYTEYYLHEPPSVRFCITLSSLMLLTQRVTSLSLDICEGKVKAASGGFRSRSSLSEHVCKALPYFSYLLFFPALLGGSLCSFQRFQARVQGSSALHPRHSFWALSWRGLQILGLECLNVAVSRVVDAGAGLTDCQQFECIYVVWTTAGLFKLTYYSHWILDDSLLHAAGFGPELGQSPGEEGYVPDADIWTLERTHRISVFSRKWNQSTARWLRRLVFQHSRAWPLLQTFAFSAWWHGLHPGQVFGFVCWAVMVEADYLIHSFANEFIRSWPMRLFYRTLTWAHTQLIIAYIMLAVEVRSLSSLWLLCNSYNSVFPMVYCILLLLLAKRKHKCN
# Source text: (§1) The effects of CF801 on GOAT activity were examined using a previously validated fluorescence-based assay, and in comparison with octanoyl-(Dap3)-ghrelin (1–5)–NH2, a well characterized GOAT inhibitor ([56], [63]). In this assay, membrane fractions from Sf9 insect cells were transfected to express either human (hGOAT) or mouse GOAT (mGOAT). Membranes fractions were thawed on ice and passed through an 18-gage needle 10 times enriched using a previously described method ([63]). […] Assays were analyzed by reverse phase HPLC with fluorescence detection. […] The trials were run in triplicate, with the % activity calculated as the integrated fluorescence intensity of the octanoylated product in the CF801 or octanoyl-(Dap3)-ghrelin (1–5)–NH2 run normalized by the same quantity for the vehicle-only reaction. […]
# (§2) Figure 3 Percent activity of human GOAT (A) and mouse GOAT (B) (obtained from membrane fractions from Sf9 cells expressing hGOAT and mGOAT, resepectively) when exposed to CF801 and octanoyl-(Dap3)-ghrelin (1–5)–NH2 using a fluorescence-based microsomal assay. GSSFLCAcDan was used as an acylation target with fluorescence measured by reverse phase HPLC with fluorescence detection. […] All values are expressed as mean ± SEM. ***p < 0.001 compared to vehicle control.
# mouse GOAT (mGOAT) = molecular target: T2, mouse GOAT (mGOAT) (Mus musculus, UniProt P0C7A3); test: Fluorescence-based GOAT activity assay, mouse GOAT; assay type: biochemical; details: concentrations up to 10 μM; Sf9 membranes, 1.5 μM GSSFLCAcDan, 500 μM octanoyl-CoA, 30 min pre-incubation, 1 h room temperature, pH 7.0, HPLC fluorescence, triplicate; F(3,8) = 0.139, p > 0.05
# T2 construct: made in house; host or cells: Sf9 insect cells (membrane fraction)
# T2 sequence (P0C7A3 1-435): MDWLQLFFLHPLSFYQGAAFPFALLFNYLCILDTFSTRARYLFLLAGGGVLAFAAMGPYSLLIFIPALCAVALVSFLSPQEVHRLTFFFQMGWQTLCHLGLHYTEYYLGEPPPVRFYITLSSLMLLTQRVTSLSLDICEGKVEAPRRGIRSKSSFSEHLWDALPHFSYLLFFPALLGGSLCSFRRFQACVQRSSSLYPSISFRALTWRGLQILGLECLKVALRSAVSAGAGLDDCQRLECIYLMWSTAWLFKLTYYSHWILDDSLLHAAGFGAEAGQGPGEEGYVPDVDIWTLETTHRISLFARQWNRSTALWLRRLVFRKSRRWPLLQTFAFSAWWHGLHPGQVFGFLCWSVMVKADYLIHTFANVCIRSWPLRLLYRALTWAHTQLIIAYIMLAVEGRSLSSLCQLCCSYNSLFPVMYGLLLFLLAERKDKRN
# Source text: as §1, §2
sequence,measurement,setting,value
GSAFLSPEHQRK KRRQRRR-NH2 [CF801],hGOAT activity with CF801,human GOAT (hGOAT),no inhibition was seen; also recorded: no effect
same,mGOAT activity with CF801,mouse GOAT (mGOAT),no inhibition was seen; also recorded: no effect
